For 53 compounds, MIC and IC50 results are on record in ChEMBL document CHEMBL1153699, “Discovery and optimization of antibacterial AccC inhibitors” (Bioorg Med Chem Lett, 2009).

The structures appear in SMILES notation. Converted amounts (≈) assume the structure as drawn.

The first assay has as its system Escherichia coli. The experiment in a line: Antimicrobial activity against Escherichia coli HS294. The class given is functional.
Details: not given; call rule not given here
As a reminder, the MIC is the least concentration at which growth counts as inhibited. The low end stands for greater potency, the high end for weaker potency. For the compound `NC(=O)c1ccc2c(n1)nc(NCc1ccccc1Cl)n2[C@@H]1CCc2ccccc21`, the MIC stood at 0.8 µg/mL (≈ 1.91 µM).

Take `CC(C)(CO)Cn1c(NCc2ccccc2Cl)nc2nc(C(N)=O)ccc21`: the MIC was 1.6 µg/mL (≈ 4.13 µM). On to `C[S+]([O-])c1cc(C(N)=O)cc2nc(NCc3ccccc3Cl)n(C[C@H]3CCCCC[C@H]3O)c12` (some centres undefined), for which 12.5 µg/mL (≈ 25.6 µM) was the least that counted as inhibitory (MIC). For `NC(=O)c1cc(Br)c2c(c1)nc(NCc1ccccc1Cl)n2C[C@H]1CCCCC[C@H]1O`, the MIC came to 0.4 µg/mL (≈ 0.791 µM).

Consider `CS(=O)(=O)c1cc(C(N)=O)cc2nc(NCc3ccccc3Cl)n(C[C@H]3CCCCC[C@H]3O)c12`, for which the MIC came to 1.6 µg/mL (≈ 3.17 µM).

In turn, `NC(=O)c1cc([N+](=O)[O-])c2c(c1)nc(NCc1ccccc1Cl)n2C[C@H]1CCCCC[C@H]1O` returned an MIC of 0.2 µg/mL (≈ 0.424 µM).

Test system in a further assay: not listed separately
The experiment in a line: Inhibition of Escherichia coli HS294 ACCase.
Details: not given
The term IC50 denotes the concentration that inhibits the measured activity by half. As for `COc1cc(Cc2cnc(N)nc2N)cc(OC)c1OC` [TRIMETHOPRIM], the IC50 entry was “Not Active”.

The same assay, now with this note: read-out: IC50.
With `Cc1ccccc1CNc1nc2cc(C(N)=O)ccc2n1CC1CCCCC1`, the IC50 is 28000 nM. Regarding `CNS(=O)(=O)c1cc(C(N)=O)cc2nc(NCc3ccccc3Cl)n(C[C@H]3CCCCC[C@H]3O)c12`, the IC50 was found to be 380 nM. Take `NC(=O)c1ccc2c(c1)nc(NCc1cccc(Cl)c1)n2CC1CCCCC1`: the IC50 was determined as 40000 nM. Consider `NC(=O)c1ccc2c(c1)nc(NCc1cccc3ccccc13)n2CC1CCCCC1`, for which the IC50 was 171000 nM. On to `NC(=O)c1ccc2c(c1)nc(NCc1ccccc1Cl)n2[C@@H]1CCc2ccccc21`, for which the IC50 was found to be 700 nM. Turning to `NC(=O)c1ccc2c(c1)nc(NCc1ccccc1C(F)(F)F)n2CC1CCCCC1`, the IC50 amounted to 144000 nM. Regarding `C[C@H](Nc1nc2cc(C(N)=O)ccc2n1CC1CCCCC1)c1ccccc1`, the IC50 came to 41000 nM.

Regarding `CC(C)CCNS(=O)(=O)c1cc(C(N)=O)cc2nc(NCc3ccccc3Cl)n(C[C@H]3CCCCC[C@H]3O)c12`, the IC50 turned out to be 800 nM. Take `NC(=O)c1ccc2c(c1)nc(NCc1ccccc1Cl)n2[C@H]1CCCc2ccccc21`: the IC50 was 1300 nM. In the case of `NC(=O)c1ccc2c(c1)nc(NCc1ccccc1Br)n2CC1CCCCC1`, the IC50 stood at 143000 nM. Take `NC(=O)c1ccc2c(n1)nc(NCc1ccccc1Cl)n2C1CCCCC1`: the IC50 was 130 nM.

Turning to `Cn1c(NCc2ccccc2Cl)nc2cc(C(N)=O)cc([N+](=O)[O-])c21`, the IC50 was determined as 3500 nM. On to `NC(=O)c1cc([N+](=O)[O-])c2c(c1)nc(NCc1ccccc1Cl)n2[C@H]1CCc2ccccc21`, for which the IC50 is 90 nM. Take `NC(=O)c1ccc2c(n1)nc(NCc1ccccc1Cl)n2[C@@H]1CCc2ccccc21`: the IC50 is 20 nM. Turning to `NC(=O)c1cc(Cl)c2c(c1)nc(NCc1ccccc1Cl)n2CC1CCCCC1`, the IC50 stood at 1600 nM. For the compound `NC(=O)c1ccc2c(c1)nc(NCc1ccccc1Cl)n2CCc1ccccc1`, the IC50 is 8900 nM. Turning to `CC(C)(C)OCCCn1c(NCc2ccccc2Cl)nc2nc(C(N)=O)ccc21`, the IC50 was 350 nM. Still for that read-out and setting: the same measure for `NC(=O)c1ccc2c(c1)nc(NCc1c(Cl)cccc1Cl)n2CC1CCCCC1`: 241000 nM. The same measure, in the same setting: for `CC1CCCCC1n1c(NCc2ccccc2Cl)nc2cc(C(N)=O)ccc21` (centres undefined) the value was 2100 nM; for `NC(=O)c1ccc2c(n1)nc(NCc1ccccc1Cl)n2CC1CCCCC1`, 160 nM; for `NC(=O)c1ccc2c(n1)nc(NCc1ccccc1Cl)n2CC1COc2ccccc2O1` (centres undefined), 300 nM.

As to `NC(=O)c1cc(S(N)(=O)=O)c2c(c1)nc(NCc1ccccc1Cl)n2C[C@H]1CCCCC[C@H]1O`, the IC50 came out at 700 nM.

On to `C[C@H](O)Cn1c(NCc2ccccc2Cl)nc2nc(C(N)=O)ccc21`, for which the IC50 is 270 nM. As for `NC(=O)c1ccc2c(n1)nc(NCc1ccccc1Cl)n2CCCO`, the half-maximal inhibitory concentration (IC50) came to 190 nM. The same measure, in the same setting: for `C[C@@H](c1ccccc1)n1c(NCc2ccccc2Cl)nc2nc(C(N)=O)ccc21` the value was 2060 nM; for `CC(C)(CO)Cn1c(NCc2ccccc2Cl)nc2nc(C(N)=O)ccc21`, 20 nM. As for `CNC(=O)c1ccc2c(c1)nc(NCc1ccccc1Cl)n2CC1CCCCC1`, the IC50 was greater than 20000 nM. As for `NC(=O)c1ccc2c(c1)nc(NCc1ccccc1Cl)n2[C@H]1CCc2ccccc21`, the IC50 was determined as 14700 nM. For `C[S+]([O-])c1cc(C(N)=O)cc2nc(NCc3ccccc3Cl)n(C[C@H]3CCCCC[C@H]3O)c12` (some centres undefined), the IC50 is 260 nM. With `NC(=O)c1ccc2c(c1)nc(NCc1ccccc1Cl)n2CC[C@H](O)CO`, the IC50 is 400 nM. In the case of `CC(C)S(=O)(=O)c1cc(C(N)=O)cc2nc(NCc3ccccc3Cl)n(C[C@H]3CCCCC[C@H]3O)c12`, the IC50 turned out to be 100 nM.

On to `NC(=O)c1cc(Br)c2c(c1)nc(NCc1ccccc1Cl)n2C[C@H]1CCCCC[C@H]1O`, for which the IC50 was 130 nM. Regarding `NC(=O)c1ccc2c(c1)nc(NCc1ccccc1Cl)n2CC1CCCCC1`, the IC50 is 5000 nM. With `NC(=O)c1ccc2c(c1)nc(NCc1ccccc1F)n2CC1CCCCC1`, the IC50 stood at 16900 nM. Still for that read-out and setting: the same measure for `Cn1c(NCc2ccccc2Cl)nc2cc(C(N)=O)cc(N)c21`: 50000 nM. Regarding `NC(=O)c1cc(S(=O)(=O)NCc2ccc(Cl)cc2)c2c(c1)nc(NCc1ccccc1Cl)n2C[C@H]1CCCCC[C@H]1O`, the IC50 was found to be 2100 nM. With `CSc1cc(C(N)=O)cc2nc(NCc3ccccc3Cl)n(C[C@H]3CCCCC[C@H]3O)c12`, the IC50 was found to be 170 nM. Regarding `NC(=O)c1ccc2c(c1)nc(NCc1ccccc1Cl)n2C[C@H]1CCCCC[C@H]1O`, the IC50 turned out to be 500 nM. On to `NC(=O)c1ccc2c(c1)nc(NCc1ccccc1Cl)n2CCCO`, for which the IC50 was found to be 2000 nM. Consider `NC(=O)c1ccc2c(n1)nc(NCc1ccccc1Cl)n2Cc1ccc2c(c1)OCCO2`, for which the IC50 stood at 2750 nM. On to `NC(=O)c1ccc2c(n1)nc(NCc1ccccc1Cl)n2Cc1ccccc1`, for which the IC50 was 170 nM. Consider `NC(=O)c1ccc2c(n1)nc(NCc1ccccc1Cl)n2Cc1cccc(OC(F)(F)F)c1`, for which the IC50 was 40000 nM. In the case of `NC(=O)c1ccc2c(c1)nc(NCc1ccc(Cl)cc1)n2CC1CCCCC1`, the IC50 came to 63000 nM. As to `CC(C)(CO)Cn1c(NCc2ccccc2Cl)nc2cc(C(N)=O)ccc21`, the half-inhibitory concentration (IC50) is 700 nM. Consider `CS(=O)(=O)c1cc(C(N)=O)cc2nc(NCc3ccccc3Cl)n(C[C@H]3CCCCC[C@H]3O)c12`, for which the 50% inhibitory concentration (IC50) is 60 nM.

As to `NC(=O)c1ccc2c(c1)nc(NCc1ccccc1)n2CC1CCCCC1`, the IC50 was found to be 15800 nM.

On to `COc1ccccc1Cn1c(NCc2ccccc2Cl)nc2nc(C(N)=O)ccc21`, for which the IC50 turned out to be 2840 nM. Consider `NC(=O)c1ccc2c(n1)nc(NCc1ccccc1Cl)n2CC(O)COc1ccccc1` (centres undefined), for which the IC50 was found to be 3010 nM. Same read-out and setting: the same measure for `NC(=O)c1cc([N+](=O)[O-])c2c(c1)nc(NCc1ccccc1Cl)n2C[C@H]1CCCCC[C@H]1O`: 10 nM; for `NC(=O)c1cc(N)c2c(c1)nc(NCc1ccccc1Cl)n2C[C@H]1CCCCC[C@H]1O`: 5000 nM; for `COc1ccccc1CNc1nc2cc(C(N)=O)ccc2n1CC1CCCCC1`: 139000 nM. Consider `NC(=O)c1ccc2c(c1)nc(NCc1ccccc1Cl)n2CCc1c[nH]c2ccccc12`, for which the IC50 worked out at 9500 nM.
